Experimental data reported in ChEMBL document CHEMBL1201862, “PubChem BioAssay data set” (2004).
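1) Cells in 96-well plates. 2) Compound, 48 h, 5 concentrations. 3) Linear interpolation between surrounding doses. 4) Unreached endpoint = highest concentration. Here, GI50 denotes the concentration required for 50% inhibition of growth.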 Active and inactive are the calls of the source. No stated cut-off is given here; in the data, active = GI50 up to about 1.1 µM and inactive = higher. Where a SMILES comes first, the peptide text is derived from it. The star is where a group is joined. Boc = CC(C)(C)OC(=O)*

Key:
Assay in all cases: NCI-60 cell line screen, 48 h
SK-OV-3 = test system: SK-OV-3
OVCAR-8 = test system: OVCAR-8
ACHN = test system: ACHN
SF-268 = test system: SF-268
HOP-62 = test system: HOP-62
COLO 205 = test system: COLO 205
HCT-15 = test system: HCT-15
LOX IMVI = test system: LOX IMVI
SNB-19 = test system: SNB-19
HOP-92 = test system: HOP-92
M14 = test system: M14
SF-295 = test system: SF-295
MOLT-4 = test system: MOLT-4
U-251 = test system: U-251
NCI-H226 = test system: NCI-H226
HCC 2998 = test system: HCC 2998
SK-MEL-5 = test system: SK-MEL-5
SK-MEL-2 = test system: SK-MEL-2
IGROV-1 = test system: IGROV-1
NCI-H522 = test system: NCI-H522

SMILES	GI50 (SK-OV-3)	GI50 (OVCAR-8)	GI50 (ACHN)	GI50 (SF-268)	GI50 (HOP-62)	GI50 (COLO 205)	GI50 (HCT-15)	GI50 (LOX IMVI)	GI50 (SNB-19)	GI50 (HOP-92)	GI50 (M14)	GI50 (SF-295)	GI50 (MOLT-4)	GI50 (U-251)	GI50 (NCI-H226)	GI50 (HCC 2998)	GI50 (SK-MEL-5)	GI50 (SK-MEL-2)	GI50 (IGROV-1)	GI50 (NCI-H522)
C=Cc1cnc([N+](=O)[O-])n1C	71 µM (inactive)	> 100 µM (inactive)	52 µM (inactive)	46.7 µM (inactive)	92 µM (inactive)	46.5 µM (inactive)	50.2 µM	87.5 µM (inactive)	> 100 µM (inactive)	35.8 µM (inactive)	65.5 µM (inactive)	35.2 µM (inactive)	53.8 µM (inactive)	> 100 µM (inactive)	> 100 µM (inactive)	42.7 µM (inactive)	83.2 µM (inactive)			
S=C(Cc1ccc2c(c1)Sc1ccccc1O2)N1CCOCC1	49.9 µM (inactive)	30.5 µM (inactive)	38.7 µM (inactive)	32.6 µM (inactive)	> 100 µM (inactive)	36.6 µM (inactive)	41.9 µM	45.4 µM (inactive)	> 100 µM (inactive)	30.6 µM (inactive)	40.6 µM (inactive)	22.6 µM (inactive)	52.1 µM (inactive)	31.8 µM (inactive)	28.8 µM (inactive)	86.1 µM (inactive)		66.7 µM (inactive)	33.7 µM (inactive)	
COP(C)(=O)/C(Cc1ccccc1)=N\O (stereo not drawn)	> 100 µM (inactive)	> 100 µM (inactive)	> 100 µM (inactive)		> 100 µM (inactive)	> 100 µM (inactive)	> 100 µM	> 100 µM (inactive)	> 100 µM (inactive)	> 100 µM (inactive)	> 100 µM (inactive)	> 100 µM (inactive)	> 100 µM (inactive)	> 100 µM (inactive)	> 100 µM (inactive)	> 100 µM (inactive)	> 100 µM (inactive)	> 100 µM (inactive)	> 100 µM (inactive)	
O=C1/C(=C/c2ccc(Oc3ccccc3)cc2)N=C(c2ccccc2)N1c1ccc(S(=O)(=O)Nc2nccs2)cc1	27.8 µM (inactive)		37.2 µM (inactive)	36.8 µM (inactive)	14.9 µM (inactive)	8.3 µM (inactive)	8.07 µM	21.5 µM (inactive)	35.3 µM (inactive)	6.78 µM (inactive)	15.3 µM (inactive)	22.8 µM (inactive)	12.6 µM (inactive)	17.1 µM (inactive)	33.4 µM (inactive)	1.56 µM (inactive)	17.5 µM (inactive)	2.63 µM (inactive)		
CCOC(=O)c1ccc(C(=O)n2ccnc2)[nH]1		> 100 µM (inactive)	> 100 µM (inactive)	> 100 µM (inactive)	> 100 µM (inactive)	> 100 µM (inactive)	> 100 µM	> 100 µM (inactive)	> 100 µM (inactive)		> 100 µM (inactive)	> 100 µM (inactive)	> 100 µM (inactive)	> 100 µM (inactive)	> 100 µM (inactive)	> 100 µM (inactive)	> 100 µM (inactive)	> 100 µM (inactive)	> 100 µM (inactive)	> 100 µM (inactive)
COc1ccc2c(OC)c3ccoc3nc2c1O	> 100 µM (inactive)	> 100 µM (inactive)	> 100 µM (inactive)	> 100 µM (inactive)	49.2 µM (inactive)	> 100 µM (inactive)	37 µM		> 100 µM (inactive)		> 100 µM (inactive)	> 100 µM (inactive)	42.2 µM (inactive)	> 100 µM (inactive)		> 100 µM (inactive)	> 100 µM (inactive)	> 100 µM (inactive)	> 100 µM (inactive)	> 100 µM (inactive)
O=CNCNCCO	> 100 µM (inactive)	> 100 µM (inactive)	> 100 µM (inactive)	> 100 µM (inactive)	> 100 µM (inactive)		> 100 µM		> 100 µM (inactive)	> 100 µM (inactive)	> 100 µM (inactive)		> 100 µM (inactive)	> 100 µM (inactive)	> 100 µM (inactive)	> 100 µM (inactive)	> 100 µM (inactive)	> 100 µM (inactive)	> 100 µM (inactive)	
COc1cccc(/C=C2\C(=O)N(C(=O)Cc3ccccc3)N=C2C)c1		> 100 µM (inactive)	> 100 µM (inactive)	> 100 µM (inactive)	> 100 µM (inactive)	> 100 µM (inactive)	> 100 µM	> 100 µM (inactive)	> 100 µM (inactive)		> 100 µM (inactive)	> 100 µM (inactive)	> 100 µM (inactive)	> 100 µM (inactive)	> 100 µM (inactive)	> 100 µM (inactive)	> 100 µM (inactive)	> 100 µM (inactive)		> 100 µM (inactive)
CN(C)CC1CCCC1=O (stereo not drawn)	15.3 µM (inactive)	3.62 µM (inactive)	3.03 µM (inactive)	5.85 µM (inactive)	17.9 µM (inactive)	0.56 µM (active)	0.378 µM	1.57 µM (inactive)	31 µM (inactive)	0.973 µM (active)	1.16 µM (inactive)	19.8 µM (inactive)	0.144 µM (active)	6.82 µM (inactive)	14.4 µM (inactive)	2.17 µM (inactive)	2.86 µM (inactive)	5.21 µM (inactive)	7.57 µM (inactive)	
COc1cc(C2C(C(=O)NCc3ccccc3)=C(C)NC(C)=C2C(=O)NCc2ccccc2)ccc1O		38.3 µM (inactive)	42.5 µM (inactive)	34.9 µM (inactive)			27.6 µM	32.6 µM (inactive)	29.9 µM (inactive)	31.4 µM (inactive)	34.4 µM (inactive)	46 µM (inactive)	20.4 µM (inactive)	28.6 µM (inactive)	37.9 µM (inactive)	23.6 µM (inactive)	59.4 µM (inactive)	22.3 µM (inactive)	34.4 µM (inactive)	
CCOC(=O)c1csc(NC(=O)CCN2CCCCC2)n1	> 100 µM (inactive)	> 100 µM (inactive)	> 100 µM (inactive)		> 100 µM (inactive)	> 100 µM (inactive)	> 100 µM	> 100 µM (inactive)	> 100 µM (inactive)	> 100 µM (inactive)	> 100 µM (inactive)	> 100 µM (inactive)	73.3 µM (inactive)	> 100 µM (inactive)		> 100 µM (inactive)	> 100 µM (inactive)	> 100 µM (inactive)	> 100 µM (inactive)	
O=C(O)C1(Cc2ccc3c(c2)CCC3)Cc2cc3c(cc2C1)CCC3	> 100 µM (inactive)	> 100 µM (inactive)	> 100 µM (inactive)	> 100 µM (inactive)		> 100 µM (inactive)	> 100 µM	> 100 µM (inactive)	> 100 µM (inactive)	> 100 µM (inactive)	> 100 µM (inactive)		> 100 µM (inactive)	> 100 µM (inactive)	> 100 µM (inactive)	> 100 µM (inactive)	> 100 µM (inactive)	> 100 µM (inactive)	> 100 µM (inactive)	
CCCc1cc(=O)oc2c3c(c4c(c12)OC(C)(C)CC4)O[C@@H](C)[C@H](C)[C@H]3O	17.6 µM (inactive)	13.3 µM (inactive)		15.1 µM (inactive)	14.9 µM (inactive)	12.6 µM (inactive)	11.2 µM	15.4 µM (inactive)	14 µM (inactive)	13.6 µM (inactive)	11.8 µM (inactive)	13.5 µM (inactive)	3.85 µM (inactive)	11.8 µM (inactive)	15.2 µM (inactive)	13.6 µM (inactive)	6.7 µM (inactive)	14.6 µM (inactive)	16.1 µM (inactive)	
O=C1NC2(CCCCC2)C2CCCCC(O)C12 (stereo not drawn)		> 100 µM (inactive)	> 100 µM (inactive)	> 100 µM (inactive)	> 100 µM (inactive)	> 100 µM (inactive)	> 100 µM		> 100 µM (inactive)			> 100 µM (inactive)	> 100 µM (inactive)	> 100 µM (inactive)	> 100 µM (inactive)	> 100 µM (inactive)		> 100 µM (inactive)	> 100 µM (inactive)	
COc1cc(CO)c(CC(=O)NCCCc2ccccc2)cc1OC		> 100 µM (inactive)	> 100 µM (inactive)		> 100 µM (inactive)	> 100 µM (inactive)	> 100 µM	> 100 µM (inactive)	> 100 µM (inactive)	> 100 µM (inactive)	> 100 µM (inactive)		> 100 µM (inactive)	> 100 µM (inactive)	> 100 µM (inactive)	> 100 µM (inactive)	67.9 µM (inactive)	> 100 µM (inactive)	> 100 µM (inactive)	
BrP(NC1CCCCCC1)(c1ccccc1)(c1ccccc1)c1ccccc1		2.9 µM (inactive)	3.27 µM (inactive)	2.88 µM (inactive)	8.79 µM (inactive)	1.78 µM (inactive)	18.8 µM	2.36 µM (inactive)	4.66 µM (inactive)		12.4 µM (inactive)	3.03 µM (inactive)		3.55 µM (inactive)	13.5 µM (inactive)	2.04 µM (inactive)	1.59 µM (inactive)	2.44 µM (inactive)	3.96 µM (inactive)	2.23 µM (inactive)
COC(=O)[C@H](Cc1ccc(O)cc1)NC(=O)[C@H](Cc1ccc(O)cc1)NC(=O)OC(C)(C)C (Boc-Tyr-Tyr-OMe)	> 100 µM (inactive)	66.4 µM (inactive)	> 100 µM (inactive)	> 100 µM (inactive)	> 100 µM (inactive)	37.2 µM (inactive)	> 100 µM	> 100 µM (inactive)	> 100 µM (inactive)		> 100 µM (inactive)	> 100 µM (inactive)			> 100 µM (inactive)	39.4 µM (inactive)	38 µM (inactive)		56.6 µM (inactive)	28 µM (inactive)
